{"source": "patent US20240199547A1", "about": "“OPTICAL ABSORBENT COMPOSITION” (LMS CO., LTD., priority 2022, published 2024)", "assay": "Solubility of each synthesized chemical compound in solvents at room temperature", "assay_type": "physicochemical", "details": "room temperature (about 25° C.); for Solubility in MEK: methyl ethyl ketone (MEK); for Solubility in MIBK: methyl isobutyl ketone (MIBK)", "procedure": "The solubility of each synthesized chemical compound was evaluated. Solubility was determined according to the following criteria by evaluating the solubility of each chemical compound in a plurality of solvents (cyclohexanone, toluene, methyl isobutyl ketone (MIBK) or methyl ethyl ketone (MEK)) at room temperature (about 25° C.).\nA: When the solubility is 1% by mass or more.\nB: When the solubility is 0.5% by mass or more and less than 1% by mass.\nC: When the solubility is 0.2% by mass or more and less than 0.5% by mass.\nD: When the solubility is less than 0.2% by mass.\nThe solubility evaluation results were summarized and described in Table 1."}
{"smiles": "CCCCC(CC)C(=O)Nc1cc2c(cc1C1=C([O-])/C(=c3\\cc4c(cc3NC(=O)C(CC)CCCC)=[N+](CCCC)C(C)C4(C)C)C1=O)C(C)(C)C(C)N2CCCC", "note": "(centres unmarked) [Synthesis Example 2]", "values": [{"measurement": "Solubility in Cyclohexanone", "result": "A (When the solubility is 1% by mass or more.)"}, {"measurement": "Solubility in MEK", "result": "A (When the solubility is 1% by mass or more.)"}, {"measurement": "Solubility in MIBK", "result": "A (When the solubility is 1% by mass or more.)"}, {"measurement": "Solubility in Toluene", "result": "A (When the solubility is 1% by mass or more.)"}]}
{"smiles": "CCCCCCCCN1c2cc(NC(=O)C(F)(F)F)c(C3=C([O-])/C(=c4\\cc5c(cc4NC(=O)C(F)(F)F)=[N+](CCCCCCCC)C(CC)C5(C)C)C3=O)cc2C(C)(C)C1CC", "note": "(centres unmarked) [Synthesis Example 3]", "values": [{"measurement": "Solubility in Cyclohexanone", "result": "A (When the solubility is 1% by mass or more.)"}, {"measurement": "Solubility in MEK", "result": "A (When the solubility is 1% by mass or more.)"}, {"measurement": "Solubility in MIBK", "result": "A (When the solubility is 1% by mass or more.)"}, {"measurement": "Solubility in Toluene", "result": "A (When the solubility is 1% by mass or more.)"}]}
{"smiles": "CCCC(=O)Nc1cc2c(cc1C1=C([O-])/C(=c3\\cc4c(cc3NC(=O)CCC)=[N+](CCOC)C(C)C4(C)C)C1=O)C(C)(C)C(C)N2CCOC", "note": "(centres unmarked) [Synthesis Example 4]", "values": [{"measurement": "Solubility in Cyclohexanone", "result": "A (When the solubility is 1% by mass or more.)"}, {"measurement": "Solubility in MEK", "result": "A (When the solubility is 1% by mass or more.)"}, {"measurement": "Solubility in MIBK", "result": "A (When the solubility is 1% by mass or more.)"}, {"measurement": "Solubility in Toluene", "result": "A (When the solubility is 1% by mass or more.)"}]}
{"smiles": "CCCCCCN1c2cc(NC(=O)OCC)c(C3=C([O-])/C(=c4\\cc5c(cc4NC(=O)OCC)=[N+](CCCCCC)C(C)C5(C)C)C3=O)cc2C(C)(C)C1C", "note": "(centres unmarked) [Synthesis Example 5]", "values": [{"measurement": "Solubility in Cyclohexanone", "result": "A (When the solubility is 1% by mass or more.)"}, {"measurement": "Solubility in MEK", "result": "A (When the solubility is 1% by mass or more.)"}, {"measurement": "Solubility in MIBK", "result": "A (When the solubility is 1% by mass or more.)"}, {"measurement": "Solubility in Toluene", "result": "A (When the solubility is 1% by mass or more.)"}]}
{"smiles": "CC(=O)Nc1cc2c(cc1C1=C([O-])/C(=c3\\cc4c(cc3NC(C)=O)=[N+](C)C(C)C4(C)C)C1=O)C(C)(C)C(C)N2C", "note": "(centres unmarked) [Synthesis Example 6]", "values": [{"measurement": "Solubility in Cyclohexanone", "result": "B (When the solubility is 0.5% by mass or more and less than 1% by mass.)"}, {"measurement": "Solubility in MEK", "result": "B (When the solubility is 0.5% by mass or more and less than 1% by mass.)"}, {"measurement": "Solubility in MIBK", "result": "B (When the solubility is 0.5% by mass or more and less than 1% by mass.)"}, {"measurement": "Solubility in Toluene", "result": "B (When the solubility is 0.5% by mass or more and less than 1% by mass.)"}]}
